Data as given in patent US20130156750A1, “Compositions and Methods for Using Human YKL-40 to Treat Acute Lung Injury” (YALE UNIVERSITY, priority 2010, published 2013).

Key:
BEAS-2B cells = experiment: In vitro oxygen exposure of BEAS-2B cells, YKL-40 expression by real-time RT-PCR; type: cell-based, human; conditions: 95% O2, pretreatment 10 mM 1 hour before oxygen exposure, FIG. 1G
Method: mRNA levels were assessed by real-time reverse transcriptase-polymerase chain reaction, as previously described. […] The sequences for the primers that were used were obtained from Primer Bank online (pga.mgh.harvard.edu/primerbank) Human bronchial epithelial cell line BEAS-2B cells (ATCC, Rockville, Md.) were incubated in complete bronchial epithelial basal medium (Lonza, Walkersville, Md.). They were placed in an airtight modular incubator chamber (Billups-Rothenberg, Del Mar, Calif.), which had been flushed continuously with 95% O2/5% CO2 until the oxygen level inside the chamber reached approximately 95%. The incubator chamber was then placed in a tissue culture incubator at 37° C., the O2 inside the chamber was replaced every 24 hours, and the cells were harvested at the desired time points (24-72 h). The responses in these cells were compared with events in cells incubated in 5% CO2 and air. In select experiments, the cells were incubated with N-acetyl-L-cysteine (Sigma, St. Louis, Mo.), which was added at a dose of 10 mM 1 hour before oxygen exposure, or its vehicle control.

mice exposed to 100% O2 = experiment: Hyperoxic acute lung injury (100% O2 exposure) in mice; type: in vivo
Excerpt: BRP-39^−/− mice were generated and used as previously described (Lee et al., 2009, J Exp Med 206; 1149-1166). The mice were generated on a mixed 129/C57BL/6 background and subsequently bred for more than 10 generations onto a C57BL/6 background. Transgenic mice in which human YKL-40 was tightly and inducibly overexpressed (CC10-rtTA-tTS-YKL-40) in a lung-specific manner were generated with constructs and approaches that have been previously described. (Lee et al., 2009, J Exp Med 206:1149-1166). Mice that lacked BRP-39 and produced YKL-40 only in pulmonary epithelial cells (CC10-rtTA-tTS-YKL-40/BRP-39^−/−) were generated by breeding the CC10-rtTA-tTS-YKL-40 and BRP-39^−/− mice. Mice with caspase-3-null mutations were kindly provided by Dr. Flavell (Dept. of Immunobiology, Yale University School of Medicine). Animal protocols were approved by the Yale University Institutional Animal Care and Use Committee, the guidelines of which were followed for all experiments.
Mice (4-6 wk old) were placed in cages in an airtight Plexiglas chamber (55×40×50 cm), as described previously (Waxman et al., 1998, J Clin Invest 101:1970-1982; Ward et al., 2000, Am J Respir Cell Mol Biol 22:535-542; Wang et al., 2003, J Biol Chem 278:31226-31232). Throughout the experiment, they were given free access to food and water. Oxygen levels were constantly monitored by an oxygen sensor, which was connected to a relay switch incorporated into the oxygen supply circuit. The inside of the chamber was kept at atmospheric pressure, and mice were exposed to a 12-hour light-dark cycle. […]
Bronchoalveolar lavage (BAL; 50 μg) fluids and/or lung lysates were subjected to immunoblot analysis with antibodies against inhibitor of caspase-activated deoxyribonuclease (Chemicon International, Billerica, Mass.), caspase-3 (Cell Signaling Technology, Danvers, Mass.) or β-tubulin (Santa Cruz Biotechnology, Inc.), and the polyclonal rabbit antiserum against BRP-39, as noted above. These samples were fractionated by polyacrylamide gel electrophoresis, transferred to membranes, and evaluated as described previously (Kang et al., 2007, J Exp Med 204:1083-1093).
The levels of BRP-39 in BAL or lung lysates were evaluated by ELISA with an anti-BRP-39 rabbit polyclonal IgG for capture and biotinylated anti-BRP-39, followed by horseradish peroxidase-labeled streptavidin (GE Healthcare, Piscataway, N.J.) for detection. […] The levels of BAL fluid CXCL-1 and CCL-2 were measured by ELISA with commercial kits (R&D Systems, Minneapolis, Minn.), as directed by the manufacturer.
DNA fragmentation and cell death were evaluated with terminal deoxynucleotidyl transferase-mediated dUTP nick end labeling (TUNEL) assays, as previously described. […]

CC(=O)N[C@@H](CS)C(=O)O [N-acetyl-L-cysteine]
effect on hyperoxia inhibition of YKL-40 expression (BEAS-2B cells): abrogated the YKL-40-inhibiting effects of hyperoxia

YKL-40: human homolog of BRP-39, chitinase-like protein; inducibly overexpressed as a transgene in mouse lung epithelium
survival in 100% oxygen (mice exposed to 100% O2; BRP-39−/− mice with epithelial-targeted transgenic YKL-40 (CC10-rtTA-tTS-YKL-40/BRP-39−/−), FIG. 5A): enhanced the survival
augmented hyperoxia-induced responses (permeability, protein leak, tissue and BAL inflammation, KC/CXCL-1 and MCP-1/CCL2, TUNEL-positive cell death, caspase-3 activation) (mice exposed to 100% O2; BRP-39−/− mice with epithelial-targeted transgenic YKL-40, 100% O2, FIGS. 5B-5H): restored to levels comparable to those in WT animals
survival in 100% O2 (mice exposed to 100% O2; CC10-rtTA-tTS-YKL-40 mice on WT genetic background, FIG. 5I): enhanced
alveolar capillary permeability alterations, protein leak, tissue and BAL inflammation, KC/CXCL-1 and MCP-1/CCL2 production, TUNEL-positive cell death, caspase-3 activation (mice exposed to 100% O2; YKL-40 Tg animals on WT genetic background, 100% O2, FIGS. 5B-5H): diminished
